Results from US8603502B2, “Compositions comprising jasmonic acid derivatives and use of these derivatives” (L'Oreal S.A., priority 2002, dated 2013).

What was measured:
Type in all cases: cell-based
isolated stratum corneum [1] = assay: Keratolytic power, Test 2: counting corneocytes released from isolated stratum corneum, comparison with jasmonic acid; details: 1% by weight solution in PBS + 0.1% Triton X100, pH 7.4; 37° C., 24 hours
Protocol: (§1) The keratolytic power of a number of compounds of this disclosure was studied. This test comprises counting corneocytes released following incubation of patches of isolated stratum corneum in the presence of the test compounds.
(§2) Stratum corneum isolated by trypsin/heat from surgical plasties was used. A number of different stratum corneum samples were used. Discs of 4 mm in diameter were punched out and placed at the bottom of a 96-well plate.
A 1% by weight solution of the compound of Example 1, or jasmonic acid (comparison), was prepared in a PBS buffer supplemented with 0.1% of Triton X100. The pH of the solution was adjusted to 7.4.
(§3) 50 microliters of test solution or of control solution (PBS buffer supplemented with 0.1% of Triton X100) were added to each well. Incubation was carried out at 37° C. with stirring for 24 hours.
(§4) 10 microliters of solution were then withdrawn and were placed in a Malassez cell. The liberated corneocytes were counted under the microscope.
The results obtained are as follows, expressed as the number of liberated corneocytes per microliter, averaged over three tests. Corneocyte fragments are not counted.

isolated stratum corneum [2] = assay: Keratolytic power, Test 1: counting corneocytes released after incubating patches of isolated stratum corneum with the test compound; details: 1% by weight solution in PBS + 0.1% Triton X100, pH 7.4, 37° C., 24 hours
Protocol: as §1, §2
A 1% by weight solution of the compound of Example 3 was prepared in a PBS buffer supplemented with 0.1% of Triton X100. The pH of the solution was adjusted to 7.4.
as §3, §4
The results obtained are as follows, expressed as the number of liberated corneocytes per microliter, averaged over three tests. Corneocyte fragments were not counted.

isolated stratum corneum [3] = assay: Keratolytic power, Test 3: counting corneocytes released from isolated stratum corneum, PEG 8/ethanol vehicle; details: 2% by weight solution in water with 50% PEG 8 and 30% ethanol, 37° C., 24 hours; for number of liberated corneocytes per microliter, Sample 1: Sample 1, average over three tests; for number of liberated corneocytes per microliter, Sample 2: Sample 2, average over three tests; for number of liberated corneocytes per microliter, Average: average of Samples 1-2
Protocol: as §1, §2
A 2% by weight solution of the compound of Example 3, or 2-hydroxy-4-octanoylbenzoic acid (comparison), was prepared in an aqueous solution containing 50% by weight of polyethylene glycol (PEG 8) and 30% by weight of ethanol.
50 microliters of test solution or of control solution were added to each well. Incubation was carried out at 37° C. with stirring for 24 hours.
10 microliters of solution were then withdrawn and were placed in a Mallassez cell. The liberated corneocytes were counted under the microscope.
The results obtained are as follows, expressed as the number of liberated corneocytes per microliter, averaged over the three tests. Corneocyte fragments were not counted.

CC/C=C\C[C@H]1C(O)CC[C@@H]1CC(=O)O (mixture of isomers) [Example 1, (+/−)(1R,2R)-3-hydroxy-2-[(2Z)-2-pentenyl]cyclopentaneacetic acid]
number of liberated corneocytes per microliter, Average (3 tests per sample, 3 different samples) (isolated stratum corneum [1]): 26 ± 7 per microliter

CCCCC[C@H]1C(O)CC[C@@H]1CC(=O)O (mixture of isomers) [Example 3, (+/−)(1R,2R)-3-hydroxy-2-pentylcyclopentaneacetic acid]
number of liberated corneocytes per microliter, Average (isolated stratum corneum [2]; average of Samples 1-3): 61 ± 33 per microliter
number of liberated corneocytes per microliter, Sample 1 (isolated stratum corneum [2]; stratum corneum Sample 1, average over three tests): 28 ± 9 per microliter
number of liberated corneocytes per microliter, Sample 2 (isolated stratum corneum [2]; stratum corneum Sample 2, average over three tests): 56 ± 7 per microliter
number of liberated corneocytes per microliter, Sample 3 (isolated stratum corneum [2]; stratum corneum Sample 3, average over three tests): 101 ± 11 per microliter
number of liberated corneocytes per microliter, Sample 1 (isolated stratum corneum [3]): 2 ± 3 per microliter
number of liberated corneocytes per microliter, Sample 2 (isolated stratum corneum [3]): 3 ± 1 per microliter
number of liberated corneocytes per microliter, Average (isolated stratum corneum [3]): 2.5 ± 2 per microliter

CC/C=C\C[C@H]1C(=O)CC[C@@H]1CC(=O)O (racemic) [Jasmonic acid, (+/−)(1R,2R)-3-oxo-2-[(2Z)-2-pentyl]cyclopentaneacetic acid]
number of liberated corneocytes per microliter, Average (3 tests per sample, 3 different samples) (isolated stratum corneum [1]): 15 ± 5 per microliter

CCCCCCCC(=O)c1ccc(C(=O)O)c(O)c1 [2-Hydroxy-4-octanoylbenzoic acid, 2-hydroxy-4-octanoylbenzoic acid, reference compound]
number of liberated corneocytes per microliter, Sample 1 (isolated stratum corneum [3]): 3 ± 3 per microliter
number of liberated corneocytes per microliter, Sample 2 (isolated stratum corneum [3]): 4 ± 3 per microliter
number of liberated corneocytes per microliter, Average (isolated stratum corneum [3]): 3.5 ± 3 per microliter
